Results published in PubChem BioAssay (NCI).
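Each compound was tested at five concentrations against cells in 96-well plates for 48 hours. GI50 = concentration required for 50% inhibition of growth. At the TGI there is no net growth.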

Key:
Experiment in all cases: NCI-60 cell line screen, 48 h
NCI-H460 lung = system: NCI-H460 lung
RPMI-8226 leukemia = system: RPMI-8226 leukemia
SR leukemia = system: SR leukemia
A498 renal = system: A498 renal
MDA-MB-435 = system: MDA-MB-435
K-562 leukemia = system: K-562 leukemia
HOP-92 NSCLC = system: HOP-92 NSCLC
MALME-3M melanoma = system: MALME-3M melanoma
U251 CNS = system: U251 CNS
NCI/ADR-RES ovarian = system: NCI/ADR-RES ovarian
MCF7 breast = system: MCF7 breast
CAKI-1 renal = system: CAKI-1 renal
OVCAR-3 ovarian = system: OVCAR-3 ovarian
NCI-H522 lung = system: NCI-H522 lung
IGROV1 ovarian = system: IGROV1 ovarian
LOX IMVI melanoma = system: LOX IMVI melanoma
HCT-116 colon = system: HCT-116 colon
HT29 colon = system: HT29 colon
SK-MEL-2 melanoma = system: SK-MEL-2 melanoma
SW-620 colon = system: SW-620 colon
KM12 colon = system: KM12 colon
DU-145 prostate = system: DU-145 prostate
SK-MEL-28 melanoma = system: SK-MEL-28 melanoma
TK-10 renal = system: TK-10 renal
SF-539 CNS = system: SF-539 CNS
HS 578T breast = system: HS 578T breast
HCT-15 colon = system: HCT-15 colon
UO-31 renal = system: UO-31 renal

SMILES: COc1ccc(/C=C/C(=O)c2ccc(OC)c(OC)c2)cc1O
- TGI (NCI-H460 lung): 11.8 µM
- GI50 (RPMI-8226 leukemia): 3.19 µM
- TGI (RPMI-8226 leukemia): 15.1 µM
- GI50 (SR leukemia): 393 nM
- TGI (SR leukemia): > 100 µM
- GI50 (A498 renal): 4.84 µM
- TGI (A498 renal): 20.3 µM
- GI50 (MDA-MB-435): 5.22 µM
- TGI (MDA-MB-435): 23.5 µM
- GI50 (K-562 leukemia): 3.31 µM
- TGI (K-562 leukemia): > 100 µM
- GI50 (HOP-92 NSCLC): 2020 nM
- TGI (HOP-92 NSCLC): 13.6 µM
- GI50 (MALME-3M melanoma): 15.8 µM
- TGI (MALME-3M melanoma): 31.7 µM
- GI50 (U251 CNS): 3.59 µM
- TGI (U251 CNS): 14.6 µM
- GI50 (NCI/ADR-RES ovarian): 3.88 µM
- TGI (NCI/ADR-RES ovarian): 49.1 µM
- GI50 (MCF7 breast): 4.58 µM
- TGI (MCF7 breast): 16.2 µM
- GI50 (CAKI-1 renal): 18.1 µM
- TGI (CAKI-1 renal): > 100 µM
- GI50 (OVCAR-3 ovarian): 2560 nM
- TGI (OVCAR-3 ovarian): 6.31 µM
- GI50 (NCI-H522 lung): 3.42 µM
- TGI (NCI-H522 lung): 12.4 µM
- GI50 (IGROV1 ovarian): 7.03 µM
- TGI (IGROV1 ovarian): 39.9 µM
- GI50 (LOX IMVI melanoma): 5.69 µM
- TGI (LOX IMVI melanoma): 18.6 µM
- GI50 (HCT-116 colon): 3.35 µM
- TGI (HCT-116 colon): 12.8 µM
- GI50 (HT29 colon): 5.91 µM
- TGI (HT29 colon): 20.5 µM
- GI50 (SK-MEL-2 melanoma): 14.9 µM
- TGI (SK-MEL-2 melanoma): 32.9 µM
- GI50 (SW-620 colon): 3.09 µM
- TGI (SW-620 colon): 12.8 µM
- GI50 (KM12 colon): 3.57 µM
- TGI (KM12 colon): 13.3 µM
- GI50 (DU-145 prostate): 2340 nM
- TGI (DU-145 prostate): 5.64 µM
- GI50 (SK-MEL-28 melanoma): 12.9 µM
- TGI (SK-MEL-28 melanoma): 27.4 µM
- GI50 (TK-10 renal): 11.4 µM
- TGI (TK-10 renal): 30.4 µM
- GI50 (SF-539 CNS): 2490 nM
- TGI (SF-539 CNS): 7.34 µM
- GI50 (HS 578T breast): 11 µM
- TGI (HS 578T breast): 90.9 µM
- GI50 (HCT-15 colon): 3.41 µM
- TGI (HCT-15 colon): 32.9 µM
- GI50 (UO-31 renal): 5.83 µM
- TGI (UO-31 renal): 19.2 µM
